Results reported in ChEMBL document CHEMBL1150312, “The SAR studies of novel CB2 selective agonists, benzimidazolone derivatives” (Bioorg Med Chem Lett, 2008).

Legend:
[1] = Lipophilicity, log D at pH 7.4; type: physicochemical; settings: buffer
[2] = Bioavailability in rat at 3 mg/kg, po; type: ADME, organism-based; settings: in vivo

CC(C)(C)[C@H](NC(=O)n1c(=O)n(CCC2CCOCC2)c2ccccc21)C(N)=O
logD [1]: 2.4

CC(C)(C)[C@H](NC(=O)n1c(=O)n(CC2CCCO2)c2ccccc21)C(N)=O (stereo not given in full)
logD [1]: 2.1

CC(C)(C)[C@H](NC(=O)n1c(=O)n(CCC2(O)CCOCC2)c2ccccc21)C(N)=O
logD [1]: 1.9

CN(C)CCn1c(=O)n(C(=O)N[C@H](C(N)=O)C(C)(C)C)c2ccccc21
logD [1]: 1.5

CC(C)(O)CCn1c(=O)n(C(=O)N[C@H](C(N)=O)C(C)(C)C)c2ccccc21
logD [1]: 2.2
bioavailability [2]: 33%

CC(C)(C)[C@H](NC(=O)n1c(=O)n(CC2(O)CCOCC2)c2ccccc21)C(N)=O
logD [1]: 1.6

CC(C)(O)Cn1c(=O)n(C(=O)N[C@H](C(N)=O)C(C)(C)C)c2ccccc21
logD [1]: 2.2

CC(C)(C)[C@H](NC(=O)n1c(=O)n(CCN2CCCC2)c2ccccc21)C(N)=O
logD [1]: 1.5

CC(C)CCn1c(=O)n(C(=O)N[C@H](C(N)=O)C(C)(C)C)c2ccccc21
logD [1]: 3.4
